Measured values reported in patent publication US5597823A, “Tricyclic substituted hexahydrobenz [e]isoindole alpha-1 adrenergic antagonists” (priority 1995, dated 1997).
Structures can show the parent of a compound that is named as a salt.

Columns and labels:
Type in all cases: cell-based
[1] = molecular target: T1, α-1B adrenoceptor (rat spleen) (Rattus norvegicus, UniProt P15823); assay: Functional antagonism: phenylephrine (PE)-induced contraction of rat spleen; conditions: vs phenylephrine, Schild plot; for Kb: read-out: pA2 Rat Spleen [α-1B] (converted)
T1 construct: PE-induced contraction of rat spleen; from tissue; host or cells: rat spleen
T1 sequence (P15823 1-515): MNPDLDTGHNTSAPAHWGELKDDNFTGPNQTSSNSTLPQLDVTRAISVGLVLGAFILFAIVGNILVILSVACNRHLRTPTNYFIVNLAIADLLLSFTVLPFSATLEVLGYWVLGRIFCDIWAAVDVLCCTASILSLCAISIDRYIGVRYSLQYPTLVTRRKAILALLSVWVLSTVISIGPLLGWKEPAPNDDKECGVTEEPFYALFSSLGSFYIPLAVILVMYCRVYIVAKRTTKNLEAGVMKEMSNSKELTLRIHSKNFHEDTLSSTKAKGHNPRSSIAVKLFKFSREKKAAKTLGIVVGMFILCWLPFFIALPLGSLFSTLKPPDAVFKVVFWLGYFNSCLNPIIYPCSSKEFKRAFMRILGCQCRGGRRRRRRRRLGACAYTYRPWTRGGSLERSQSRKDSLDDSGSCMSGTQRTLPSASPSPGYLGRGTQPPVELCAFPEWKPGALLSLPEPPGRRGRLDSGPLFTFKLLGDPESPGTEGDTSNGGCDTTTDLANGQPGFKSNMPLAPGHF
Description: (§1) Functional assays indicative of pharmacologically defined α-1 adrenoceptors were used to further characterize compounds. Inhibition of phenylephrine (PE)-induced contraction of canine prostate smooth muscle can be correlated with α-1A adrenoceptor activation. […] For each of these models, agonist dose response curves were repeated against increasing concentrations of test agent to derive a Schild plot [log ([…]) against log (molarity of test agent)] to determine the pA2.

[2] = molecular target: T2, α-1A adrenoceptor (rat vas deferens) (Rattus norvegicus, UniProt P43140); assay: Functional antagonism: phenylephrine (PE)-induced contraction of rat vas deferens; conditions: vs phenylephrine, Schild plot; for Kb: read-out: pA2 Rat Vas Deferens [α-1A] (converted)
T2 construct: PE-induced contraction of rat vas deferens; from tissue; host or cells: rat vas deferens
T2 sequence (P43140 1-466): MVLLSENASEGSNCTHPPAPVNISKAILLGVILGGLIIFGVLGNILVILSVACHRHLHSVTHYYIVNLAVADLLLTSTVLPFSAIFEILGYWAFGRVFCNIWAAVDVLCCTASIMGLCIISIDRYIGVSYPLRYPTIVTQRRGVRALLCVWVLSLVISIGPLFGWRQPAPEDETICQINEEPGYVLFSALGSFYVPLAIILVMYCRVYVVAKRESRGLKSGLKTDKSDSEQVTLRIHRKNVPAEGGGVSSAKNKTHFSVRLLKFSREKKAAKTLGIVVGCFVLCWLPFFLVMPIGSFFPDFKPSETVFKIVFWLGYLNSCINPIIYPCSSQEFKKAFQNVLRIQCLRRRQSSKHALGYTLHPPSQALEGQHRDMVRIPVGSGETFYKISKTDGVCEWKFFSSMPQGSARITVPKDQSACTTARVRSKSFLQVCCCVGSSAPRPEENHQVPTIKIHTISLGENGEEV
Description: as §1

[3] = molecular target: T3, α-1A adrenoceptor (dog prostate) (Canis lupus, UniProt A0A8I3NK63); assay: Functional antagonism: phenylephrine (PE)-induced contraction of canine prostate strips; conditions: Table 2a; vs phenylephrine; Schild plot
T3 sequence (A0A8I3NK63 1-466): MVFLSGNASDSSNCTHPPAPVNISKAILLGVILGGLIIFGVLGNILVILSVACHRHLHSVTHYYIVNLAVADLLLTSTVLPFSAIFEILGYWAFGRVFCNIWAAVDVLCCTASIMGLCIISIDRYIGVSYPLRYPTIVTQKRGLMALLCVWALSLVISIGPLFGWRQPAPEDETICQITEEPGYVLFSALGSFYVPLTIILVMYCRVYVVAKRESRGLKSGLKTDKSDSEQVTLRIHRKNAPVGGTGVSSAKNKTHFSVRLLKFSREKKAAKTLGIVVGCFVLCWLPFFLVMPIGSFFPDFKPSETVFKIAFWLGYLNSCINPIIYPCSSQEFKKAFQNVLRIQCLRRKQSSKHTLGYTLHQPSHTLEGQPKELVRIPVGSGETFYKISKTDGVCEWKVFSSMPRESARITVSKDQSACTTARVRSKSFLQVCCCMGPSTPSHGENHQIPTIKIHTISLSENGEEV
Method in brief: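 Canine prostate smooth-muscle strips in vitro, contracted by phenylephrine. Agonist dose–response curves repeated at rising test-agent concentrations; pA2 derived by Schild plot […].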

Row | SMILES | Kb [1] [nM] | Kb [2] [nM] | pA2 Dog Prostate [α-1A] [3] | pA2 Rat Spleen [α-1B] [1] | pA2 Rat Vas Deferens [α-1A] [2]
1 | COc1cccc2c1[C@@H]1CN(CCn3c(=O)[nH]c4c(sc5ccccc54)c3=O)C[C@@H]1CC2 (relative stereo) [Example 5, 3-[2-(cis-9-Methoxy-2,3,3a,4,5,9b-hexahydro-[1H]-benz[e]isoindol-1-yl)ethyl]-[1]benzothieno[3,2-d]pyrimidine-2,4(1H,3H)-dione hydrochloride] | 148 | 13.8 | 7.79 | – | –
2 | COc1ccc2sc3c(=O)n(CCN4C[C@@H]5CCc6c(OC)cccc6[C@@H]5C4)c(=O)[nH]c3c2n1 [Example 64, dihydrochloride] | 25.1 | 0.794 | 9.63 | – | –
3 | COc1cccc2c1CC[C@H]1CN(CCn3c(=O)[nH]c4c(sc5ncccc54)c3=O)C[C@@H]21 (relative stereo) [Example 23, hydrochloride] | 151 | 5.13 | 8.97 | – | –
4 | COc1cccc2c1CC[C@@H]1CN(CCn3c(=O)[nH]c4c(sc5ccccc54)c3=O)C[C@@H]21 (relative stereo) [Example 10, 3-[2-(trans-6-Methoxy-2,3,3a,4,5,9b-hexahydro-[[1H]-benz[e]isoindol-1-yl)ethyl]-[1]benzothieno[3,2-d]pyrimidine-2,4(1H,3H)-dione hydrochloride] | 30.2 | 3.09 | 8.37 | – | –
5 | COc1cccc2c1CC[C@H]1CN(CCn3c(=O)[nH]c4c(sc5nccnc54)c3=O)C[C@@H]21 [Example 39] | – | – | 9.16 | 7.76 | 8.33
6 | COc1cccc2c1CC[C@@H]1CN(CCn3c(=O)[nH]c4c(oc5ccccc54)c3=O)C[C@@H]21 (relative stereo) [Example 18, 3-[2-(trans-6-Methoxy-2,3,3a,4,5,9b-hexahydro-[[1H]-benz[e]isoindol-1-yl)ethyl]-benzofuro[3,2-d]pyrimidine-2,4(1H,3H)-dione hydrochloride] | 13.5 | 13.8 | 8.37 | – | –
7 | COc1cccc2c1CC[C@@H]1CN(CCn3c(=O)[nH]c4c([nH]c5ccccc54)c3=O)C[C@@H]21 (relative stereo) [Example 17, 3-[2-(trans-6-Methoxy-2,3,3a,4,5,9b-hexahydro-[[1H]-benz[e]isoindol-1-yl)ethyl]-1H-pyrimido[5,4-b]indole-2,4(3H,5H)-dione hydrochloride] | 63.1 | 10.7 | 8.29 | – | –
8 | COc1cccc2c1CC[C@H]1CN(CCn3c(=O)[nH]c4c([nH]c5ccccc54)c3=O)C[C@@H]21 (relative stereo) [Example 14, hydrochloride] | 23.4 | 2.69 | 8.23 | – | –
9 | COc1cccc2c1CC[C@H]1CN(CCn3c(=O)[nH]c4c(sc5cnccc54)c3=O)C[C@@H]21 [Example 36, dihydrochloride] | 7.94 | 2.51 | 9.71 | – | –
10 | COc1cccc2c1CC[C@H]1CN(CCn3c(=O)[nH]c4c(sc5ncccc54)c3=O)C[C@@H]21 [Example 31, 3,2-((3aR,9bR)-cis-6-Methoxy-2,3,3a,4,5,9b-hexahydro-[1H]-benz[e]isoindol-1-yl))ethyl]-pyrido[3',2':4,5]thieno[3,2-d]pyrimidine-2,4(1H,3H)-dione hydrochloride] | 17.4 | 2.24 | 8.78 | – | –
11 | COc1cccc2c1CC[C@H]1CN(CCn3c(=O)[nH]c4c(sc5ccccc54)c3=O)C[C@@H]21 [Example 9, hydrochloride] | 25.7 | 1.95 | 8.63 | – | –
12 | COc1cccc2c1CC[C@@H]1CN(CCn3c(=O)[nH]c4c(sc5ccccc54)c3=O)C[C@H]21 [Example 8, 3-[2-((3aS,9bS)-cis-6-Methoxy-2,3,3a,4,5,9b-hexahydro-[1H]-benz[e]isoindol-1-yl)ethyl][1]benzothieno[3,2]pyrimidine-2,4(1H,3H)-dione hydrochloride] | 55 | 17.4 | 7.63 | – | –
13 | COc1cccc2c1CC[C@H]1CN(CCn3c(=O)[nH]c4c(sc5cccc(C)c54)c3=O)C[C@@H]21 [Example 69, 3-[2-((3aR,9bR)-cis-6-Methoxy-2,3,3a,4,5,9b-hexahydro-[1H]-benz[e]isoindol-1-yl)ethyl]-[1]-9-methyl-benzothieno[3,2-d]pyrimidine-2,4(1H,3H)-dione hydrochloride] | 69.2 | 2.51 | 8.25 | – | –
14 | COc1cccc2c1CC[C@H]1CN(CCn3c(=O)[nH]c4c(ccc5ccccc54)c3=O)C[C@@H]21 (relative stereo) [Example 25, hydrochloride] | 174 | 2.19 | 8.27 | – | –
15 | COc1cccc2c1CC[C@H]1CN(CCn3c(=O)[nH]c4c(sc5ccc(Cl)nc54)c3=O)C[C@@H]21 [Example 62, dihydrochloride] | 21.9 | 0.724 | 9.24 | – | –

More lines, now with the values ahead:

Row | Kb [1] [nM] | Kb [2] [nM] | pA2 Dog Prostate [α-1A] [3] | pA2 Rat Spleen [α-1B] [1] | pA2 Rat Vas Deferens [α-1A] [2] | SMILES
16 | 26.9 | 1.45 | 9.05 | – | – | COc1cccc2c1CC[C@H]1CN(CCn3c(=O)c4sc5nccnc5c4n(C(C)C)c3=O)C[C@@H]21 [Example 90, hydrochloride]
17 | 7.76 | 1.17 | 9.03 | – | – | COc1cnc2c(n1)sc1c(=O)n(CCN3C[C@@H]4CCc5c(OC)cccc5[C@@H]4C3)c(=O)[nH]c12 [Example 89, hydrochloride]
18 | 23.4 | 25.1 | 8.74 | – | – | COc1cccc2c1CC[C@H]1CN(CCn3c(=O)[nH]c4c(oc5ncccc54)c3=O)C[C@@H]21 [Example 76, hydrochloride]
19 | 44.7 | 1.1 | 9.35 | – | – | COc1cccc2c1CC[C@H]1CN(CCn3c(=O)[nH]c4c(sc5nc(Cl)cnc54)c3=O)C[C@@H]21 [Example 88, 3-[2-(cis-(3aR,9bR)-6-Methoxy-2,3,3a,4,5,9b-hexahydro-[1H]-benz[e]isoindol-1-yl)ethyl]-7-chloro-pyrazino[2',3':4,5]thieno[3,2-d]pyrimidine-2,4(1H,3H)-dione hydrochloride]
20 | 79.4 | 5.89 | 8.04 | – | – | COc1cccc2c1CC[C@@H]1CN(CCn3c(=O)[nH]c4c(sc5ncccc54)c3=O)C[C@H]21 [Example 75, hydrochloride]
21 | 17.4 | 3.63 | 8.96 | – | – | COCCOCCn1c(=O)n(CCN2C[C@@H]3CCc4c(OC)cccc4[C@@H]3C2)c(=O)c2sc3nccnc3c21 [Example 102, hydrochloride]
22 | 87.1 | 18.2 | 8.67 | – | – | COc1cccc2c1CC[C@H]1CN(CCn3c(=O)[nH]c4c(oc5nccnc54)c3=O)C[C@@H]21 [Example 87, hydrochloride]
23 | – | – | 8.18 | 7.2 | 7.92 | O=c1[nH]c2c(sc3cccnc32)c(=O)n1CCN1C[C@@H]2CCc3c(ccc4c3OCO4)[C@@H]2C1 (relative stereo) [Example 112, dihydrochloride]
